Nine compounds from ChEMBL document CHEMBL4251627, “Structural and biological characterization of new hybrid drugs joining an HDAC inhibitor to different NO-donors” (Eur J Med Chem, 2018) can be followed below.

The source made the active and inactive calls. The rule behind the calls is not given here. Where only a bound is given, the exact number is not on record here.

One data set concerns Rattus norvegicus. Description: (§1) Activation of soluble guanylyl cyclase in Wistar rat aortic strips assessed as dilation of L-phenylephrine-induced contraction administered 5 mins before contraction by isometric transducer analysis.
Data set [1] in a line: as §1.
Data set [2] can be described thus: Activation of soluble guanylyl cyclase in Wistar rat aortic strips assessed as dilation of L-phenylephrine-induced contraction administered 5 mins before contraction in presence of ODQ by isometric transducer analysis.
In data set [3] the test system is C2C12. Description: Cytotoxicity against mouse C2C12 cells assessed as increase in dead cells 0.5 to 10 uM after 72 hrs by Trypan Blue-based assay. In kind it is cell-based. To be noted: c2c12, 72 h.
The test system of the next data set is HaCaT. Description: Cytotoxicity against human HaCaT cells assessed as increase in dead cells 0.1 to 100 uM after 72 hrs by Trypan Blue-based assay. In kind it is cell-based.
The target of data set [4] is Histone deacetylase (Homo sapiens) (UniProt Q13547+O15379+Q9UBN7+Q92769+Q9UQL6+Q8WUI4+Q9BY41+Q96DB2+P56524+Q9UKV0+Q969S8). Briefly: Inhibition of HDAC in human HaCaT cells at 10 uM using acetylated lysine side chain as substrate incubated for 1 hr by colorimetric detection based assay relative to control. In kind it is cell-based.
For data set [5], the target named is T1, Histone deacetylase 2 (Homo sapiens, UniProt Q92769). Description: Induction of HDAC2 S-nitrosylation in human HaCaT cells after 1 hr by immunoprecipitation and Western blot analysis. Type of data set: cell-based. (Immunoblotting shows a protein as a band on a membrane.)
T1 sequence (Q92769 whole entry): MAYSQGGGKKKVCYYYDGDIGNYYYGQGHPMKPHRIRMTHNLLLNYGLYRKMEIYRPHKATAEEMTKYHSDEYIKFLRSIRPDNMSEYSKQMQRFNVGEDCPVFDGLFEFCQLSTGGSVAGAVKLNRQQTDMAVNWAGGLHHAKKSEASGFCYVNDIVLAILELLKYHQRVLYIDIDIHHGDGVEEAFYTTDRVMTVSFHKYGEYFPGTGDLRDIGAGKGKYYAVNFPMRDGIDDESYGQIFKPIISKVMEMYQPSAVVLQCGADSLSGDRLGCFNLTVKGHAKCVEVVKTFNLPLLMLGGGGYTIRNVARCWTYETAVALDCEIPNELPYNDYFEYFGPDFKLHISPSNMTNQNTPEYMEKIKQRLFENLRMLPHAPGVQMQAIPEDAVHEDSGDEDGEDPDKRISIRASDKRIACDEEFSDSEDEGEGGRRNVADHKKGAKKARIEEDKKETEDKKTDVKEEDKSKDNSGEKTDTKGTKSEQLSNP
The nature of data set [6]: Drug metabolism in human HaCaT cells assessed as induction of NO release at 10 uM after 1 hr by DAF-2D-based FACS analysis. Type of data set: ADME, cell-based. For orientation: A flow cytometer gives signals particle by particle.
For the next data set, the target named is Histone deacetylase 1 (Homo sapiens, UniProt Q13547). Description: Inhibition of human FLAG-tagged HDAC1 expressed in HEK293T cells using acetylated lysine side chain as substrate after 1 hr by colorimetric detection based assay.
Chain of Histone deacetylase 1 (Q13547 whole entry): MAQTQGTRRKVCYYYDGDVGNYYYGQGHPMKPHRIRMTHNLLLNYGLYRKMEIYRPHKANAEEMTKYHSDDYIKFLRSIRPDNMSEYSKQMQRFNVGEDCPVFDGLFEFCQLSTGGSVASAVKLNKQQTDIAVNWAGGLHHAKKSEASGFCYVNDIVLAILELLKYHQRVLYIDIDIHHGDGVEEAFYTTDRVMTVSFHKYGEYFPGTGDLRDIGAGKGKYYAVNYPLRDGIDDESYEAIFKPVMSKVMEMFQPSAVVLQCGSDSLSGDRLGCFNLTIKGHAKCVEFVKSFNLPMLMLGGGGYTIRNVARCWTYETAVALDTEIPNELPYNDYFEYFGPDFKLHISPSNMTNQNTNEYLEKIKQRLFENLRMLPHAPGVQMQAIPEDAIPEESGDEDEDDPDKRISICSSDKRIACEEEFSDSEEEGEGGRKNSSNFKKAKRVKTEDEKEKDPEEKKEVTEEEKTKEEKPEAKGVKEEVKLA
The target of data set [7] is T1, Histone deacetylase 2. Description: Inhibition of FLAG-tagged HDAC2 (unknown origin) expressed in HEK293T cells using acetylated lysine side chain as substrate after 1 hr by colorimetric detection based assay. Type of data set: cell-based.
Another data set deals with Histone deacetylase 3 (Homo sapiens, UniProt O15379). Briefly: Inhibition of human FLAG-tagged HDAC3 expressed in HEK293T cells using acetylated lysine side chain as substrate after 1 hr by colorimetric detection based assay. Type of data set: cell-based.
Chain of Histone deacetylase 3 (O15379 whole entry, the tested form may be a part): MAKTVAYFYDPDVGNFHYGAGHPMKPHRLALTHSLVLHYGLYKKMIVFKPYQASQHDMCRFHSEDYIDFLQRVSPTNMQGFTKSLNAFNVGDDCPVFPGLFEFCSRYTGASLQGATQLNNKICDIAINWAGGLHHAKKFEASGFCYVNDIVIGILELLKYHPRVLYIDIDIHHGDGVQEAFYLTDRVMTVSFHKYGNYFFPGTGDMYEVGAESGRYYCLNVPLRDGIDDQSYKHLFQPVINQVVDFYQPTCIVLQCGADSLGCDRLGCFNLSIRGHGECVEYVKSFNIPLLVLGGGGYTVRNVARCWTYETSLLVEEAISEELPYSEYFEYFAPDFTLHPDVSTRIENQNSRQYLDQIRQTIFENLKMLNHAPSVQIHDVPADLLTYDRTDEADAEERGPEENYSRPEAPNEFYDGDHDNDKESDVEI
Data set [8] deals with C2C12. Description: Induction of skeletal muscle differentiation in mouse C2C12 cells assessed as increase in myoblast fusion by measuring MyoM expression at 0.5 uM after 5 days by qRT-PCR analysis. In kind it is functional, cell-based.
The subject of data set [9] is C2C12. Description: Induction of skeletal muscle differentiation in mouse C2C12 cells assessed as induction of multinucleated fibers at 0.5 uM after 5 days by DAPI-staining based microscopy. In kind it is functional, cell-based.
Data set [10] addresses Histone deacetylase 5 (Homo sapiens) (UniProt Q9UQL6). Briefly: Induction of HDAC5 nuclear translocation in human HaCaT cells at 10 uM after 1 hr by immunofluorescence analysis. Type of data set: cell-based.
Data set [11] has as its system C2C12. Briefly: Induction of skeletal muscle differentiation in mouse C2C12 cells assessed as myotube formation by measuring MHC expression at 0.5 uM after 5 days by DAPI-staining based microscopy. In kind it is functional, cell-based.
The target in data set [12] is Histone deacetylase 4 (Homo sapiens) (UniProt P56524). Briefly: Induction of HDAC4 nuclear translocation in human HaCaT cells at 10 uM after 1 hr by immunofluorescence analysis. In kind it is cell-based.
Chain of Histone deacetylase 4 (Homo sapiens) (P56524 whole entry): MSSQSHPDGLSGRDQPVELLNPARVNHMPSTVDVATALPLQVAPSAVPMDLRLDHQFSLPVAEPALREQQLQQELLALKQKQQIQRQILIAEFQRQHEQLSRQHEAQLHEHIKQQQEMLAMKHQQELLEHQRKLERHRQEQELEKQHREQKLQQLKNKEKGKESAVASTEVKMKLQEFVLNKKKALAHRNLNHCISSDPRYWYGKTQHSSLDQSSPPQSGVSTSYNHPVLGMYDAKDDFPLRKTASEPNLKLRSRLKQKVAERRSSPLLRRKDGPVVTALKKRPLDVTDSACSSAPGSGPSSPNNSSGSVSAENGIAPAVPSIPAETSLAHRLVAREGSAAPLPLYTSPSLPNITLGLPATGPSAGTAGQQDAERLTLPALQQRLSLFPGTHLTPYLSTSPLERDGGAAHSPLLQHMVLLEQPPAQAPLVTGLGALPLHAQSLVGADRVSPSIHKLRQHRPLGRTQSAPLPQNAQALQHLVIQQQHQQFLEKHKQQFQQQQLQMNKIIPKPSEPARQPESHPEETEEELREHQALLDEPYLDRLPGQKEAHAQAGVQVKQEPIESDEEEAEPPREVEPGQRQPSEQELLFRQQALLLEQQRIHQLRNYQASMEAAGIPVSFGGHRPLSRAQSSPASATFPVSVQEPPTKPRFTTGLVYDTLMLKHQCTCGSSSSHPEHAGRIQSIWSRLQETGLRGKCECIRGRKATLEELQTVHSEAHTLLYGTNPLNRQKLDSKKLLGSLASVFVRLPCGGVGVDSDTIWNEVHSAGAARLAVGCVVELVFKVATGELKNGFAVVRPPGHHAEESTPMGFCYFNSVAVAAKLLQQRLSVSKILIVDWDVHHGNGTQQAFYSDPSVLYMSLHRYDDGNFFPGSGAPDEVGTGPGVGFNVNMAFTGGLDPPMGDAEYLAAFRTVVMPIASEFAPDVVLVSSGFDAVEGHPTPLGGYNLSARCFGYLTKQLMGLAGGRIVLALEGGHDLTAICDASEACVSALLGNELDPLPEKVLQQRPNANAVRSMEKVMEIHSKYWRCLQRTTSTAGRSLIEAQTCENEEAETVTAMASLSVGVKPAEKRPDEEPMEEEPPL
Data set [13] is described as follows: Drug metabolism in human HaCaT cells assessed as induction of NO release at 10 uM by DAF-2D-based FACS analysis. In kind it is ADME, cell-based. To be noted: TDE = time-dependent effect.
The nature of data set [14]: Drug metabolism in human HaCaT cells assessed as induction of NO release at 50 to 100 uM after 1 hr by DAF-2D-based FACS analysis. Type of data set: ADME, cell-based.

Chain of Histone deacetylase 5 (Homo sapiens) (Q9UQL6 whole entry): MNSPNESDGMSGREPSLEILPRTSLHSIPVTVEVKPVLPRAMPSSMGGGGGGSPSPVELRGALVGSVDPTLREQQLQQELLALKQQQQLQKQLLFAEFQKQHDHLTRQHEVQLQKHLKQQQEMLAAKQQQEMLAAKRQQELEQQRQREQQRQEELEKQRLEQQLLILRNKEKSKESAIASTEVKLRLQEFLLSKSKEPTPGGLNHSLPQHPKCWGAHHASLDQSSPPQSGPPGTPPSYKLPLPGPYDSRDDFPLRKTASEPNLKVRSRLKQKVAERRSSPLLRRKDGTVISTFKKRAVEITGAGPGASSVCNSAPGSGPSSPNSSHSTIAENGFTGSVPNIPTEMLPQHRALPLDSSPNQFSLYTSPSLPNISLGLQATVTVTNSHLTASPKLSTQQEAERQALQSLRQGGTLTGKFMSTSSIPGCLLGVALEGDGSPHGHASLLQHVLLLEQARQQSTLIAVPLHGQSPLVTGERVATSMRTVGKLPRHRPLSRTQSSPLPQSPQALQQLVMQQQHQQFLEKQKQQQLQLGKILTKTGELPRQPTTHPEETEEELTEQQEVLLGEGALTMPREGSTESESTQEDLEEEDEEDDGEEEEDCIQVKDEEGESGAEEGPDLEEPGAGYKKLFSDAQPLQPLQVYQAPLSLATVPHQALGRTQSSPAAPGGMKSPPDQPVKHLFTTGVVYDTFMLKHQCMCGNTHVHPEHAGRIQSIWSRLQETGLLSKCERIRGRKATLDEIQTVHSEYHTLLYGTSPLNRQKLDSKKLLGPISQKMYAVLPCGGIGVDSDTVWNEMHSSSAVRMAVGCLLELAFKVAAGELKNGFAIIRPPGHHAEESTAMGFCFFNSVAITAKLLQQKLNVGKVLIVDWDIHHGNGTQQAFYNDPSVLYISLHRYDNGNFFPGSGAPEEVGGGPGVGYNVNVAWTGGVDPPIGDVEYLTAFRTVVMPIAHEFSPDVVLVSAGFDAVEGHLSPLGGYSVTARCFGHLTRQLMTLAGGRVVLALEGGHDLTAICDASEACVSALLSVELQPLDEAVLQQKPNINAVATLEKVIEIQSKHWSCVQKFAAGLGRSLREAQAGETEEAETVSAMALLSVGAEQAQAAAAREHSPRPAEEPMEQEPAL

One may read the EC50 as the midpoint of the concentration-response curve. As for `CN(C)CCCCC(CO[N+](=O)[O-])O[N+](=O)[O-]` (centres undefined), the Activity entry in the data set with Rattus norvegicus was “Dose-dependent effect”. Also, the EC50 is 800 nM in data set [1] and greater than 100 µM in [2].
Regarding `Nc1ccccc1NC(=O)c1ccc(CNC(=O)OCc2cccnc2)cc1` [ENTINOSTAT], the Activity result in the data set with C2C12 [3] and with HaCaT was “Toxic” in each case.
A word on the inhibition: it is the relative decrease from the control value, in per cent. Higher therefore signals strong suppression. With `CN(Cc1ccc(COC(=O)NCc2ccc(C(=O)Nc3ccccc3N)cc2)cn1)Cc1no[n+]([O-])c1C#N`, the Activity result in the data set on Rattus norvegicus was “Dose-dependent effect”. The concentration giving a half-maximal response (EC50) came to 24 nM in [1] and 0.96 µM in [2]. In addition, the inhibition in data set [4] is 20 to 50%. Moreover, the outcome on Histone deacetylase 2 [5] was Active.
Take `CN(CCCO[N+](=O)[O-])Cc1ccc(COC(=O)NCc2ccc(C(=O)Nc3ccccc3N)cc2)cn1.Cl.Cl.Cl`: the Activity result with Rattus norvegicus is “Dose-dependent effect”. Also, the concentration for a half-maximal effect (EC50) came out at 2600 nM in [1] and 44 µM in [2]. The inhibition in data set [4] is 20 to 50%. Moreover, in data set [6], the Drug metabolism result is reported as “Metabolite_Notdetected”.
In the case of `Nc1ccccc1NC(=O)c1ccc(CNC(=O)OCc2ccc(OCCOc3no[n+]([O-])c3-c3ccccc3)nc2)cc1`, the Activity result with Rattus norvegicus is “Dose-dependent effect”. The figures for the EC50 in data set [1] and in data set [2] were 3400 nM and greater than 100 µM, respectively. Further, in data set [4], the inhibition is 20 to 50%. The Drug metabolism entry in data set [6] is “Metabolite_Detected”.
A word on the IC50: it is the concentration that inhibits the measured activity by half. Low values mean greater potency in that assay, high ones weaker potency in that assay. On to `CN(CCCCC(CO[N+](=O)[O-])O[N+](=O)[O-])Cc1ccc(COC(=O)NCc2ccc(C(=O)Nc3ccccc3N)cc2)cn1.Cl.Cl.Cl` (centres undefined), for which the IC50 against Histone deacetylase 1 was determined as 1040 nM; on Histone deacetylase 2 [7] it was 390 nM; against Histone deacetylase 3 it was 1220 nM. Also, the Activity entry with Rattus norvegicus is “Dose-dependent effect”; in the data set with C2C12 [3], “Non-Toxic”; in the data set on HaCaT, “Non-Toxic”. Further, the values for the EC50 in data set [1] and in data set [2] were 290 nM and 11 µM, respectively. The inhibition in [4] is 20 to 50%. For the same compound, the result (with C2C12 [8]; at Histone deacetylase 2 [5]; in the data set on C2C12 [9]; in [10]; in the data set on C2C12 [11]; in data set [12]) was Active. Besides, the Drug metabolism result in data set [6] is “Metabolite_Detected”.
On to `COCCOc1no[n+]([O-])c1S(=O)(=O)c1ccccc1`, for which the Activity entry in the data set on Rattus norvegicus was “Dose-dependent effect”. Besides, the concentration for a half-maximal effect (EC50) in data set [1] was 4.5 nM; in [2], 0.43 µM.
As for `Nc1ccccc1NC(=O)c1ccc(CNC(=O)OCc2ccc(OCCOc3no[n+]([O-])c3S(=O)(=O)c3ccccc3)nc2)cc1`, the figures for the IC50 against Histone deacetylase 1, against Histone deacetylase 2 [7] and at Histone deacetylase 3 were 1020 nM, 370 nM and 1190 nM, respectively. Moreover, the results for the Activity entry in the data set with Rattus norvegicus, in the data set with C2C12 [3] and in the data set with HaCaT were “Dose-dependent effect”, “Non-Toxic” and “Non-Toxic”, respectively. Besides, the concentration for a half-maximal effect (EC50) in data set [1] turned out to be 31 nM; in data set [2], 0.35 µM. Further, in [4], the inhibition was 20 to 50%. Also, the result (on Histone deacetylase 2 [5]; in data set [10]; in the data set on C2C12 [11]; in data set [12]) was Active. Moreover, the Drug metabolism entry in [13] is “Tde”.
Consider `CN(Cc1ccc(COC(=O)NCc2ccc(C(=O)Nc3ccccc3N)cc2)cn1)Cc1no[n+]([O-])c1C(N)=O.Cl.Cl.Cl`, for which the Activity result with Rattus norvegicus was “Dose-dependent effect”. The figures for the concentration for a half-maximal effect (EC50) in data set [1] and in data set [2] were 3400 nM and 63 µM, respectively. The compound further yielded an inhibition in [4] of 20 to 50%. In addition, the Drug metabolism entry in [14] and in data set [6] was “Metabolite_Notdetected” in each case.
